The results in this text go back to patent US5939405A, “Phosphate derivatives of diaryl 1,3,4-oxadiazolone” (priority 1999, dated 1999).

The nature of data set [1]: rapid screen of prodrug hydrolysis and drug release in plasma. The class given is in vitro ADME. The conditions noted are these: 10 ug/mL in fresh rat plasma at 37° C.; stock 1 mg/mL in PEG-400; analysis 5 minutes after incubation; HPLC. Here is the method: A rapid screen to determine the ability of prodrugs to hydrolyze and release the drug (compound of Example 1) is conducted as follows. A 1 mg/mL stock solution of the prodrug is prepared in distilled water or acetonitrile or PEG-400. Plasma from freshly collected rat or human blood is used in this assay. To 1 mL of plasma at 37° C. was added 10 μL of stock solution of prodrug and mixed gently. Immediately after the mixing, 100 μL of plasma was removed and quenched with 300 μL of acetontrile (Zero time sample). Samples were also obtained at 30 minutes and quenched immediately. The quenched samples were centrifuged to obtain a clear supernatant for analysis. The stock solution, T=0 and T=30 samples were analyzed by a HPLC assay that separates the drug from the prodrug. Based on the relative peak areas of prodrug and drug in these samples, different prodrugs are characterized as fast, moderate and slow release agents. For example, in this model, the compound of Example 6 was dissolved in PEG-400 at a concentration of 1 mg/mL and incubated at 10 ug/mL in fresh rat plasma at 37° C.

Data set [2] has as its system cloned mammalian (mSlo or hSlo) BK channels. The experiment in a line: BK-mediated outward current in Xenopus oocytes, two-electrode voltage clamp. The class given is cell-based. As to conditions: 1 μM; at least 5 oocytes; mSlo or hSlo expressed in Xenopus oocytes. Here is the method: (§1) The ability of the compound of Example 1 to open BK channels and increase whole-cell outward (K^+) BK-mediated currents was assessed under voltage-clamp conditions by determining their ability to increase cloned mammalian (mSlo or hSlo) BK-mediated outward current heterologously expressed in Xenopus oocytes [Butler, A., et al., Science, 261, pp. 221-224 (1993); and Dworetzky, S. I., et al., Mol. Brain Res., 27, pp.189-193 (1994)]. The two BK constructs employed represent nearly structurally identical homologous proteins, and have proven to be pharmacologically identical in our tests. To isolate BK current from native (background, non-BK) current, the specific and potent BK channel-blocking toxin iberiotoxin (IBTX) [Galvez, A., et al., J. Biol. Chem,265, pp. 11083-11090 (1990)] was employed at a supramaximal concentration (50 nM). The relative contribution of BK channels current to total outward current was determined by subtraction of the current remaining in the presence of IBTX (non-BK current) from the current profiles obtained in all other experimental conditions (control, drug, and wash). […]

Data set [3] concerns non-BK native currents in the oocytes. The experiment in a line: non-BK (IBTX-insensitive) native current in oocytes, voltage clamp. Format: cell-based, Xenopus. As to conditions: at the tested concentration; current remaining in presence of 50 nM IBTX. Here is the method: as §1
In another data set the test system is cortical infarct volume. The experiment in a line: focal stroke model, permanent MCA and CCA occlusion. Format: in vivo. As to conditions: 10 μg/kg intravenously, single bolus two hours after MCAO; Wistar rat; infarct measured 24 hours after MCAO; vs vehicle-treated (water) control. Here is the method: To determine the ability of the compounds of the present invention to reduce cell loss resulting from neuronal ischemia, a standard focal cerebral ischemia is induced by permanent occlusion of the left middle cerebral artery (MCA) and common carotid artery (CCA) with one hour occlusion of the right CCA in the Wistar rat. The surgeries are performed using the sub-temporal approach of A. Tamura, et al., J. Cereb. Blood Flow Metab., 1, pp. 53-60, (1981) and its modifications [K. Osborne, et al., J. Neurol Neurosurg. Psychiatry, 50, pp. 402-410 (1987) and S. Menzies, et al., Neurosurgery, 31, pp. 100-107, (1992).]
The compound of Example 1 was evaluated in the focal stroke model involving permanent occlusion of the left MCA (MCAO) and CCA (CCAO) and temporary occlusion of the right CCA in the Wistar rat. This procedure results in a reliably large neocortical infarct volume that is measured by means of vital dye exclusion in serial slices through the brain 24 hours after MCAO. In the present test, compounds were administered using an i.v. or i.p. route of administration two hours after occlusion.

Turning to `O=C(COP(=O)(O)O)Oc1ccc(Cl)cc1Cn1nc(-c2ccc(C(F)(F)F)cc2)oc1=O` [Example 6, 3-[[5-Chloro-2-[[[(phosphonooxy)methyl]carbonyl]oxy]phenyl]methyl]-5-[4-(trifluoromethyl)phenyl]-1,3,4-oxadiazol-2(3H)-one], in data set [1], the “conversion of prodrug to the drug (compound of Example 1)” value is “conversion of the compound of Example 6 to the compound of Example 1”.
Take `O=c1oc(-c2ccc(C(F)(F)F)cc2)nn1Cc1cc(Cl)ccc1O` [Example 1, 3-[(5-Chloro-2-hydroxyphenyl)methyl]-5-[4-(trifluoromethyl)phenyl]-1,3,4-oxadiazol-2(3H)-one]: the “BK current, % of control of IBTX-sensitive current” value in data set [2] was 126 % of control. For the same molecule, the “effect on non-BK native currents in the oocytes” value in data set [3] is reported as “did not effect non-BK native currents”. Further, the “reduction of cortical infarct volume” value in the data set with cortical infarct volume is on record as “about 18%”.
